Assay results reported in article PMC6033896, “Discovery of Mcl-1 inhibitors from integrated high throughput and virtual screening” (Scientific Reports, 2018).
pIC50: −log10 of the molar value.

Experiments:
mutant Mcl-1 R263A = target: T1, mutant Mcl-1 R263A (Homo sapiens, UniProt Q07820, R263A); experiment: BLI-based direct binding assay; settings: compared with wild-type Mcl-1
T1 construct: human Mcl-1 (residues 171–323); His tag (pHis-TEV vector) (N); made in house; host or cells: E. coli Rosetta2 DE3
Description: Mcl-1 and mutant Mcl-1 R263A proteins were biotinylated using the Thermo EZ-link Sulpho-NHS-LC-biotin biotinylation kit (cat. 21435). Protein and biotin were mixed in a 1:1 molar ratio in PBS on ice for 2 hours. The reaction mixture was dialyzed in PBS buffer to remove excess biotin. BLI experiments were performed using an OctetRED96 instrument from PALL/ForteBio. All experiments were performed at 30 °C using PBS (Gibco, #10010-23), and 0.005% Tween 20 as the assay buffer. Assays were conducted in 96-well, black, microplates (Greiner bio-one, #655209) containing the protein solutions for immobilization, pure assay buffer for dissociation, and serial dilutions of compounds in the presence of 5% DMSO to be tested. During the experiment, sample plates were continuously shaken at 1000 rpm. Biotinylated proteins were immobilized on Super Streptavidin (SSA) biosensors by dipping sensors into plate wells containing protein solutions. Biotinylated blocked Streptavidin sensors were used as control sensors prepared by the protocol provided from the manufacturer. Association (3 Minutes) and dissociation (3 Minutes) cycles of compounds were started by dipping sensors to compound wells with different tested concentrations as well as in pure buffer wells. Buffer-only reference was included in all assays. […]

Mcl-1/Noxa interaction = test system: Mcl-1/Noxa interaction; set-up: method as in PubChem BioAssay AID 1417; settings: Dose Response Confirmation for Mcl-1/Noxa Interaction Inhibitors; ref PubChem BioAssay AID 1417; cited from earlier work
Bcl-2 = experiment: FP-based competitive binding assay with FAM-Bid; set-up: species or system human; settings: ratio of Ki
[1] = test system: Eµ-myc lymphoma cells overexpressing Bcl-xL; experiment: Eµ-myc lymphoma cell viability, flow cytometry; assay type: cell-based, mice; settings: increasing concentrations, 15 h

T1 sequence (Q07820 171-323 R263A): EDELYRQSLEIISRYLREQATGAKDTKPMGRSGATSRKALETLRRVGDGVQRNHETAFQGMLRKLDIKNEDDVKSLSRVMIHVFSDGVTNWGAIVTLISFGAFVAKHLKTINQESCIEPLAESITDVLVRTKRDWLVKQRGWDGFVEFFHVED

Compound | binding to mutant R263A Mcl-1 (BLI) (mutant Mcl-1 R263A) | pIC50 (Mcl-1/Noxa interaction) | fold lower binding affinity to Bcl-2 than to Mcl-1 (Bcl-2) [fold] | effect on Eµ-myc cells overexpressing Bcl-xL [1]
O=C(CSc1nnc(-c2ccco2)c(-c2ccco2)n1)Nc1ccccc1 [Compound 19] | no appreciable binding | 5.51 | – | –
O=C(CSc1nnc(-c2ccco2)c(-c2ccco2)n1)Nc1cccc(C(F)(F)F)c1 [Compound 39] | – | – | > 20 | minimal effect
